Results reported in PMC6125551 (Antimicrobial Agents and Chemotherapy, 2018).
Read-outs that look alike come from different tables or passages of the source.

Experiments:
[1] = for AUC(0-t) / half-life: male, human, in vivo
Procedure: (§1) Each panel was dosed sequentially, allowing for assessment of safety and tolerability before dose escalation.
(§2) The plasma was mixed with a stabilizer containing morpholineethanesulfonic acid buffer and ethylene glycol before storage at −70°C. […] The assay utilized hydrophilic interaction chromatography (HILIC) and tandem mass spectrometry. Stable isotope-labeled internal standards were used for all three analytes.
(§3) Pharmacokinetic parameters were determined from plasma and urine concentration-time data by a noncompartmental approach using Phoenix WinNonlin, version 6.3 (Certara LP, Princeton, NJ, USA). The CEOI (concentration at end of infusion) and Tmax (time to maximum concentration) were generated from each analyte's plasma concentration-time data. All AUC values were calculated using the linear trapezoidal method for ascending concentrations and the log trapezoidal method for descending concentrations (calculation method options in WinNonlin). AUC0–∞ was calculated as the sum of AUC0–last and Cest, last/λz, where AUC0–last is the AUC from time 0 to the time of the last quantifiable concentration, Cest, last is the predicted concentration at the time of the last quantifiable concentration, and λz is the apparent terminal rate constant. […] At least three consecutive data points (excluding Cmax) in terminal phase were used for λz calculations. Clearance (CL) was calculated as dose/AUC0–∞.

clinical [2] = settings: male, human, 500 mg
Procedure: (§4) Study 1 (protocol 001) was a phase 1, randomized, double-blind, placebo-controlled, rising single- and multiple-dose study conducted at a single center that investigated relebactam in healthy adult men. The study was conducted in four parts, and all doses were administered intravenously (i.v.) in a total volume of 100 ml over 30 min.
(§5) In each panel, in all periods (except period 4), subjects were randomized to receive a placebo (n = 2) or relebactam (n = 6).
as §2, §3

[3] = Urine pharmacokinetics, single dose, study 1 part I, healthy men; settings: imipenem-cilastatin 500 mg alone, adult men from study 1
Procedure: as §5, §2
(§6) The amount of unchanged drug excreted in urine during a collection interval (Ae) was calculated by a cumulative sum of urine (concentration of unchanged drug × volume) per collection interval. The fraction of the dose excreted in urine (fe) was calculated as Ae/dose.

[4] = Urine pharmacokinetics, single dose, study 2; settings: both, human, CLR, range
Procedure: (§7) Study 2 (protocol 002) was a phase 1, randomized, double-blind, placebo-controlled study with three panels of healthy participants that included elderly men (panel L [n = 8]), elderly women (panel M [n = 8]), and adult women (panel N [n = 8]).
as §2, §6

clinical [5] = settings: male, human, in vivo
Procedure: as §5, §2, §6

clinical [6] = settings: female, human, plasma, intravenous
Procedure: as §7, §2, §3

[7] = Plasma pharmacokinetics, single dose as 30-min i.v. infusion, study 1 part I, healthy men; settings: for half-life / AUC(0-inf) / concentration at 30 min / clearance / Vd: male, human, plasma; for AUC(0-inf): AUC0–∞; for concentration at 30 min: CEOI; for clearance: CL; for Vd: Vz;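 for all read-outs here: plasma analyte levels quantified by HILIC with tandem mass spectrometry, parameters derived noncompartmentally in WinNonlin, AUC by linear-up log-down trapezoidal rule, clearance taken as dose over AUC0–∞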
Procedure: as §4, §5, §2, §3

clinical [8] = settings: male, human, in vivo; remark: listed apart in the source
Procedure: as §1, §2, §3

clinical [9] = settings: male, human, in vivo, unbound CLR
Procedure: as §1, §2, §6

[10] = male, human, in vivo, 250 mg
Procedure: as §5, §2, §6

[11] = assumed for the calculation, no reference given; cited from earlier work
[12] = Plasma pharmacokinetics, single dose, study 2 (elderly men, elderly women, adult women)
Procedure: as §7, §2, §3

[13] = male, human, in vivo
Procedure: as §1, §2, §6

[14] = Safety and tolerability, single dose, study 1 part I; type: in vivo, human
Excerpt: The safety analysis comprised the all-subjects-as-treated (ASaT) population, which included those participants who received ≥1 dose of investigational drug.

[15] = urine and plasma, intravenous, adult participants (men and women)
[16] = urine and plasma, intravenous, elderly participants (men and women)
[17] = intravenous, 25 mg, relebactam 25 mg alone, single dose
[18] = intravenous, 50 mg, relebactam 50 mg alone, single dose
[19] = intravenous, 250 mg, relebactam 250 mg alone, single dose
[20] = intravenous, 500 mg, relebactam 500 mg alone, single dose
[21] = intravenous, 1000 mg, relebactam 1,000 mg alone, single dose
[22] = intravenous, 1150 mg, relebactam 1,150 mg alone, single dose
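Throughout, for CEOI: plasma levels quantified by HILIC with tandem mass spectrometry and isotope-labeled internal standards, parameters derived noncompartmentally in WinNonlin, clearance equal to dose divided by AUC0-∞.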

CC1(C)C[C@@H]1C(=O)N/C(=C\CCCCSC[C@H](N)C(=O)O)C(=O)O [Cilastatin]
CEOI ([1]; 0 mg relebactam + 500 mg imipenem/cilastatin, panel I, day 1, N 1): 144 µM
CEOI ([1]; 0 mg relebactam + 500 mg imipenem/cilastatin, panel J, day 1): 107 ± 6.53 µM
CEOI ([1]; 0 mg relebactam + 500 mg imipenem/cilastatin, panel K, day 1): 104 ± 10.4 µM
CEOI ([1]; 50 mg relebactam + 500 mg imipenem/cilastatin, panel C, day 1): 106 ± 12.0 µM
CEOI ([1]; 250 mg relebactam + 500 mg imipenem/cilastatin, panel F, day 1): 103 ± 20.0 µM
CEOI ([1]; 500 mg relebactam + 500 mg imipenem/cilastatin, panel H, day 1): 115 ± 21.9 µM
CEOI ([1]; 500 mg relebactam + 500 mg imipenem/cilastatin, panel J, day 1): 98.5 ± 14.6 µM
AUC(0-t) ([1]; AUC0-6, 0 mg relebactam + 500 mg imipenem/cilastatin, panel I, day 1, N 1): 167 µM·h
AUC(0-t) ([1]; AUC0-6, 0 mg relebactam + 500 mg imipenem/cilastatin, panel J, day 1): 110 ± 7.17 µM·h
AUC(0-t) ([1]; AUC0-6, 0 mg relebactam + 500 mg imipenem/cilastatin, panel K, day 1): 126 ± 37.9 µM·h
AUC(0-t) ([1]; AUC0-6, 50 mg relebactam + 500 mg imipenem/cilastatin, panel C, day 1): 127 ± 24.8 µM·h
AUC(0-t) ([1]; AUC0-6, 250 mg relebactam + 500 mg imipenem/cilastatin, panel F, day 1): 110 ± 14.2 µM·h
AUC(0-t) ([1]; AUC0-6, 500 mg relebactam + 500 mg imipenem/cilastatin, panel H, day 1): 136 ± 22.5 µM·h
AUC(0-t) ([1]; AUC0-6, 500 mg relebactam + 500 mg imipenem/cilastatin, panel J, day 1): 106 ± 17.2 µM·h
half-life ([1]; Terminal t1/2, 0 mg relebactam + 500 mg imipenem/cilastatin, panel I, day 1, N 1): 0.962 h
half-life ([1]; Terminal t1/2, 0 mg relebactam + 500 mg imipenem/cilastatin, panel J, day 1): 0.862 ± 0.088 h
half-life ([1]; Terminal t1/2, 0 mg relebactam + 500 mg imipenem/cilastatin, panel K, day 1): 0.908 ± 0.182 h
half-life ([1]; Terminal t1/2, 50 mg relebactam + 500 mg imipenem/cilastatin, panel C, day 1): 1.01 ± 0.142 h
half-life ([1]; Terminal t1/2, 250 mg relebactam + 500 mg imipenem/cilastatin, panel F, day 1): 0.998 ± 0.087 h
half-life ([1]; Terminal t1/2, 500 mg relebactam + 500 mg imipenem/cilastatin, panel H, day 1): 1.01 ± 0.146 h
half-life ([1]; Terminal t1/2, 500 mg relebactam + 500 mg imipenem/cilastatin, panel J, day 1): 0.874 ± 0.117 h
AUC(0-inf) (clinical [2]; in vivo): 114 ± 13.5 µM·h
Vd (clinical [2]; in vivo): 16.5 ± 2.11 L
concentration at 30 min (clinical [2]; in vivo): 101 ± 16.6 µM
half-life (clinical [2]; in vivo): 0.92 ± 0.051 h
fe, least squares mean (95% CI) [3]: 88.5 (82.1, 94.9) %
CL renal ([3]; male, human, in vivo, 500 mg, CLR, mean (95% CI)): 168 mL/min
CL renal ([4]; in vivo, adult participants (men and women)): 157 to 168 mL/min
CL renal ([4]; in vivo, elderly participants (men and women)): 112 to 126 mL/min

C[C@@H](O)[C@H]1C(=O)N2C(C(=O)O)=C(SCCN=CN)C[C@H]12 [Imipenem]
CL renal (clinical [5]; 500 mg): 106 ± 20.3 mL/min
CL renal (clinical [5]; 500 mg, CLR, mean (95% CI)): 108 mL/min
AUC(0-inf) (clinical [2]; plasma, intravenous): 140 ± 16.7 µM·h
clearance (clinical [2]; plasma, intravenous): 201 ± 21.4 mL/min
concentration at 30 min (clinical [2]; plasma, intravenous): 102 ± 17 µM
half-life (clinical [2]; plasma, intravenous): 1.13 ± 0.075 h
AUC(0-inf) (clinical [6]): 132 ± 18.9 µM·h
half-life ([7]; intravenous, t1/2, observed, compared with relebactam): 1.1 h
CL renal [4, 15]: 98.6 to 108 mL/min
CL renal [4, 16]: 67.6 to 80.9 mL/min
AUC(0-t) (clinical [8]): 138 ± 15.3 µM·h
clearance (clinical [8]): 178 ± 16.1 mL/min

O=C(NC1CCNCC1)[C@@H]1CC[C@@H]2CN1C(=O)N2OS(=O)(=O)O [Relebactam]
CL renal (clinical [5]; 25 mg, CLR): 177 ± 29.4 mL/min
CL renal (clinical [5]; 50 mg, CLR): 166 ± 21.8 mL/min
CL renal (clinical [5]; 125 mg, CLR): 159 ± 19.6 mL/min
CL renal (clinical [5]; 125 mg, CLR, mean (95% CI)): 158 mL/min
CL renal (clinical [5]; 250 mg, CLR): 153 ± 16.5 mL/min
CL renal (clinical [5]; 500 mg, CLR): 129 ± 20.7 mL/min
CL renal (clinical [5]; 1000 mg, CLR): 127 ± 20.2 mL/min
CL renal (clinical [5]; 1150 mg, CLR): 137 ± 20.6 mL/min
CL renal at 7 days (clinical [9]): 173 mL/min
CLR [10]: 144 ± 11.0 mL/min
free fraction [11]: 78%
increase in AUC0–∞ ([12]; adult women vs adult men (historic data from study 1)): 22%
increase in mean plasma exposure ([12]; elderly men vs adult men): 41%
increase in mean plasma exposure ([12]; elderly women vs adult women): 45%
increase in AUC0–∞ ([12]; elderly women vs elderly men): 25%
AUC(0-inf) [7, 17]: 7.97 ± 1.67 µM·h
concentration at 30 min [7, 17]: 4.42 ± 1.18 µM
clearance [7, 17]: 155 ± 30.6 mL/min
Vd [7, 17]: 18.3 ± 2.99 L
half-life ([7]; intravenous, 25 mg, t1/2, relebactam 25 mg alone, single dose): 1.39 ± 0.246 h
AUC(0-inf) [7, 18]: 15.6 ± 2.73 µM·h
concentration at 30 min [7, 18]: 9.04 ± 1.88 µM
clearance [7, 18]: 157 ± 23.8 mL/min
Vd [7, 18]: 20.5 ± 3.88 L
concentration at 30 min [7, 19]: 45.4 ± 7.27 µM
clearance [7, 19]: 148 ± 16.4 mL/min
Vd [7, 19]: 20.8 ± 2.77 L
half-life ([7]; intravenous, 250 mg, t1/2, relebactam 250 mg alone, single dose): 1.63 ± 0.129 h
AUC(0-inf) [7, 20]: 180 ± 25.7 µM·h
concentration at 30 min [7, 20]: 101 ± 17.6 µM
clearance [7, 20]: 135 ± 19.9 mL/min
Vd [7, 20]: 19.1 ± 2.64 L
half-life ([7]; intravenous, 500 mg, t1/2, relebactam 500 mg alone, single dose): 1.64 ± 0.141 h
AUC(0-inf) [7, 21]: 373 ± 51.9 µM·h
concentration at 30 min [7, 21]: 209 ± 28.6 µM
clearance [7, 21]: 130 ± 18.3 mL/min
Vd [7, 21]: 20.6 ± 3.46 L
half-life ([7]; intravenous, 1000 mg, t1/2, relebactam 1,000 mg alone, single dose): 1.84 ± 0.281 h
AUC(0-inf) [7, 22]: 396 ± 55.3 µM·h
concentration at 30 min [7, 22]: 208 ± 18.3 µM
clearance [7, 22]: 141 ± 18.8 mL/min
Vd [7, 22]: 21.6 ± 2.69 L
half-life ([7]; intravenous, 1150 mg, t1/2, relebactam 1,150 mg alone, single dose): 1.78 ± 0.225 h
half-life ([7]; intravenous, harmonic mean terminal half-life (t1/2), range, single dose, 25- to 1,150-mg dose range, healthy men): 1.35 to 1.8 h
half-life ([7]; iv, terminal half-life (t1/2), range, single- or multiple-dose i.v. administration over 30 min, independent of dose): 1.35 to 1.85 h
AUC0–∞ ([7]; relebactam 250 mg alone, single dose): 81.8 ± 9.07 µM·h
net active secretion, share of total clearance [13]: approximately 30%
CL renal [4, 15]: 106 to 158 mL/min
CL renal [4, 16]: 69.6 to 89.2 mL/min
half-life (clinical [8]; geometric mean terminal t1/2, range): 1.42 to 1.85 h
tolerability ([14]; alone or in combination with imipenem-cilastatin, across the dose ranges studied): well tolerated
participants reporting ≥1 drug-related AEs ([14]; single-dose cohort, part I, n = 16, with or without imipenem-cilastatin): 50%
